Measurements published in patent publication US8158589B2, “Peptides with the capacity to bind to transforming growth factor β1 (TGF-β1)” (Proyecto Biomedicine Cima, S.L., priority 2003, dated 2012).
Ends that are not written are not given here.

Key:
[1] = target: T1, TGF-β1 (Mus musculus, UniProt P04202); experiment: Model of acute liver damage induced by CCl4, type I collagen mRNA by real time PCR; assay type: in vivo, mice; parameters: key to % Inhibition of type I collagen mRNA induction (in vivo TGF-β1 biological activity): Neg: negative; settings: for % Inhibition of type I collagen mRNA induction (in vivo TGF-β1 biological activity): Balb/C mice, oral CCl4, 50 μg of peptide every 24 h, sacrifice after 72 hours; for inhibition of the biological activity of TGF-β1 in vivo (in words): acute liver damage, type I collagen mRNA
T1 construct: from tissue; host or cells: liver of Balb/C mice (CCl4 model); lung of C57BL/6 mice (bleomycin model)
Protocol: Acute liver damage generates a cascade of effects and physiological responses, including elevations in the concentrations of TGF-β1. This elevation is responsible for the expression of the type I collagen gene, among others. In this model of acute liver damage, female Balb/C mice weighing 25 to 30 g, were orally administered a dose of 2 μl of CCl4 (per gram of body weight) dissolved in an equivalent volume of corn oil (volumetric ratio of 1:1). The control group received an equivalent volume of corn oil only, and the treated groups received (following the single oral administration of CCl4 in corn oil) 50 μg of peptide in 500 μl of 1% physiological saline solution in DMSO (dimethyl sulfoxide) every 24 h. After 72 hours all animals were sacrificed, and the liver samples were processed. To evaluate mRNA expression, liver tissue was frozen in liquid nitrogen and stored at −80° C. until further use. Other liver tissue samples were stored in OCT® or Tissue-Tek® (Sakura Finetek B.V.) and processed in the same way as the samples used for mRNA studies. Other liver samples were fixed in 10% buffered formalin solution, embedded in paraffin and processed for their histological evaluation. The amount of mRNA encoding type I collagen was quantified in all groups using a quantitative polymerase chain reaction (PCR) technique. […] The capacity of the testing peptides to block the acute damage, as assessed by measuring the levels of induced type I collagen mRNA was quantified by real time PCR. […] The peptides tested were obtained by conventional solid peptide synthesis procedures (Merrifield R B. J Am Chem Soc 1963; 85:2149-2154; Atherton E et al. J Chem Soc Perkin Trans 1981; 1:538-546).

[2] = target: T2, TGF-β1 (Homo sapiens, UniProt P01137); experiment: Biopanning of phage-displayed 15-aa peptide library on biotinylated TGF-β1, number of colonies per sequence; assay type: binding; parameters: purchased Roche; host or cells: added to Mv-1-Lu (CCL-64) mink lung epithelial cells; settings: clones carrying the sequence among 108 colonies after the last biopanning cycle; approximate indication of affinity for TGF-β1
Description: These libraries comprise a plurality of filamentous bacteriophages (M13), each one containing a peptide genetically fused to a protein of the virus envelope—in this case bound to the N-terminal end of envelope protein pIII (FIG. 1). […] In the phage libraries, the sequence encoding the peptide originates from a sequence degenerated in each one of the 15 positions with the 20 natural amino acids, thus allowing the presentation of 1.1×10^12 possible sequences of 15 amino acids in different phages. The physical ratio, 1:1, between the peptide sequence and the DNA encoding it within the bacteriophage allows the selection (from a broad range of variants) of those sequences that specifically bind to TGF-β1. This process is carried out via an in vitro selection protocol known as “biopanning”.
This technique involves incubating a set of phages representative (to practical effects) of all the 15-aa variants, in a plate blocked with streptavidin (10 μg/ml in 0.1 M NaHCO3, during 2 h at room temperature) to which biotinylated TGF-β1 is added. […] TGF-β1 contacts the peptides carried by the phages at a concentration of […]. After about 12 hours incubation, unbound phages are eliminated by 5 washings with PBS/Tween (phosphate buffered saline/polyoxyalkylene derivatives of sorbitan fatty acid esters). […] The eluted phages are then amplified by infection in a bacterial strain (E. coli). The process is repeated three cycles so that an enrichment in the content of phages which specifically bind, and with high affinity, to TGF-β1 is achieved (FIG. 3). […] Thus, the phages selected in each cycle show more and more affinity for TGF-β1. At the end of the process, phages which have been selected for their affinity for TGF-β1, are sequenced by using primers, after isolation by tetracycline resistance of the genetically modified phages after infecting E. coli cells. […] The number of times which a sequence is repeated, corresponding to a 15 amino acids peptide carried by each clone, from the total of sequenced colonies is an indication of the degree of relative affinity of said 15 amino acids sequence for TGF-β1.
The selection of clones, obtained from the “biopanning”, was carried out by selection of the bacterial colonies infected with the phages in the presence of a bacterial antibiotic; the bacteria resistance is acquired by a tetracycline resistance gene encoded by the phage genome. Thus, only those colonies infected with bacteriophages are able to grow. This means that each colony contains the genome of only one phage coding for only one peptide presented in its surface.
A total number of 108 colonies of phage-infected bacteria were obtained from the last selection cycle of “biopanning”. The sequence of the regions coding for the peptides present in the pIII protein was carried out using primers identified with SEQ ID NO: 23. This table also reflects the number of colonies (clones) carrying said sequences.
The number of clones (colonies) of each sequence gives an approximate indication of the degree of affinity of the peptide for TGF-β1, that is, the more colonies the more binding affinity.

[3] = target: T2, TGF-β1; assay type: cell-based; parameters: purchased Roche; host or cells: added to Mv-1-Lu (CCL-64) mink lung epithelial cells; settings: for inhibition of the biological activity of TGF-β1 in vitro (in words): Mv-1-Lu proliferation
Description: The cell line Mv-1-Lu (CCL-64, […], Virginia, USA) derives from mink pulmonary epithelium, grows as a monolayer, and responds to the presence of TGF-β1 by decreasing its proliferation (FIG. 5). Thus, the peptide-mediated inhibition of this cytokine is able to restore cell growth and reflects the capacity of the different peptides to inhibit the biological activity of TGF-β1 in vitro. The peptides tested were obtained by peptide synthesis, in accordance to conventional procedures (Merrifield R B. J Am Chem Soc 1963; 85:2149-2154; Atherton E et al. J Chem Soc Perkin Trans 1981; 1:538-546).
The Mv-1-Lu cells are cultured to confluence in complete medium [RPMI-1640 supplemented with L-glutamine, sodium pyruvate, antibiotics and 10% fetal bovine serum (FBS)] at 37° C. and in 5% CO2 in 162 cm^2 bottles (Costar Corporation, CA, USA). Following trypsinization, the cells are cultured in 200 μl of complete medium in 96-well plates at an initial density of 5,000 cells/well at 37° C. and in 5% CO2 during 6 hours to ensure adhesion. Then, different concentrations of the peptides to be tested are added, starting from 200 μg/ml, and following 200 pg/ml of TGF-β1 (Roche) are added. After 12 hours of incubation 1 μCi of methyl-3H-thymidine (Amersham Life Science, Buckinghamshire, United Kingdom) is added per well in 25 μl of clean medium (RPMI-1640). The plate is incubated for 12 more hours under the same conditions. Finally, the cells are harvested (Filtermate 196 Harvester, Packard), transferring the tritiated thymidine, incorporated in the course of DNA synthesis, to plates (UniFilter-96 GF/C®, Perkin Elmer). Following the addition of scintillation fluid, the radioactivity was quantified using a scintillation counter (Top Count, Microplate Scintillation Counter, Packard). As positive and negative control, use was made of the incorporation of tritiated thymidine in the absence and presence of TGF-β1, respectively. The inhibition of TGF-β1 activity in this test was calculated based on the following formula: […]
The negative control represents the incorporation of tritiated thymidine in the presence of TGF-β1 but in the absence of peptide, whereas the positive control refers to the incorporation of tritiated thymidine in the absence of TGF-β1 and peptide. Thus, according to the capacity of the peptides to revert the cytokine repressor effect on Mv-1-Lu cell line proliferation, percentage of TGF-β1 biological activity inhibition by the peptides can be measured (Table 2).
Comparisons have been made of the activity of truncated peptides (derived from peptide sequence SEQ ID NO: 17) versus the complete sequence, in terms of the capacity to revert the suppressor effect of TGF-β1 upon proliferation of the Mv-1-Lu cell line. To this effect, and to determine the minimum sequence of peptide SEQ ID NO: 17 capable of inhibiting the biological activity of TGF-β1 in vitro, truncated versions of this peptide were synthesized, with truncation at the N-terminal end, C-terminal end or in both ends of the molecule. The peptides tested were obtained by peptide synthesis following conventional procedures (Merrifield R B. J Am Chem Soc 1963; 85:2149-2154; Atherton E et al. J Chem Soc Perkin Trans 1981; 1:538-546). Following the same methodology described in Example 2, the activity of truncated peptides versus the complete sequence of the peptide SEQ ID NO: 17 was quantified, in terms of a proliferation assay of the Mv-1-Lu cell line.

T2 sequence (P01137 279-390 limits assumed, species assumed): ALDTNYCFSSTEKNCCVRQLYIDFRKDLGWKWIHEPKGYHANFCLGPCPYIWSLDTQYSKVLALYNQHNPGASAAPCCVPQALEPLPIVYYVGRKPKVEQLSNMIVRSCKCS
T1 sequence (P04202 279-390 limits assumed): as the sequence (P01137 279-390 limits assumed, species assumed) above, with A75S counted along it

Sequence | % Inhibition of type I collagen mRNA induction (in vivo TGF-β1 biological activity) [1] | No. colonies [2] | inhibition of the biological activity of TGF-β1 in vivo (in words) [1] | inhibition of the biological activity of TGF-β1 in vitro (in words) [3] | % Inhibition of in vitro TGF-β1 biological activity [3]
DRRIFWWSLRSAPGA [SEQ ID NO: 1] | 0.69% | 6 |  |  | 
SGRRHLHRHHIFSLP [SEQ ID NO: 14] | 49.84 ± 24% | 2 | inhibitory capacity | inhibitory capacity | 
WFIPRSSWY [SEQ ID NO: 28, WFIPRSSWY] |  |  |  |  | 3.1 ± 0.9%
WHKYFLRRPLSVGLG [SEQ ID NO: 12] | Neg | 1 |  |  | 
GWHSLLHSRYHRLAA [SEQ ID NO: 9] | 26.59% | 1 |  |  | 
KRIWFIPRS [SEQ ID NO: 36, KRIWFIPRS] |  |  |  |  | 6.2 ± 2.5%
DRRIFWWSNRSAPGA [SEQ ID NO: 2] | 36.6 ± 30.7% | 1 | only inhibitory activity |  | 
RRFHFHSRMVAVDNS [SEQ ID NO: 20] | 1.41% | 1 |  |  | 
VPMALNHGVYVMVSS [SEQ ID NO: 22] | Neg | 1 |  |  | 
WHWRHRIPLQLAAGR [SEQ ID NO: 8] | Neg | 2 |  |  | 
PPYHRFWRGHRHAVQ [SEQ ID NO: 6] | 74.94 ± 25.3% | 12 | inhibitory capacity | inhibitory capacity | 
IWFIPRSSWYERA [SEQ ID NO: 26, IWFIPRSSWYERA] |  |  |  |  | 4.5 ± 1.8%
HVRLHHYLRHRSLPN [SEQ ID NO: 21] | Neg | 1 |  |  | 
RLHGHRSHRFTHVAQ [SEQ ID NO: 16] | Neg | 1 |  |  | 
KRIWFIPRSSWY [SEQ ID NO: 34, KRIWFIPRSSWY] |  |  | capable of inhibiting the expression of collagen type I mRNA |  | 34.4 ± 7.9%
HRISHFAHRYLARLH [SEQ ID NO: 7] | Neg | 2 |  |  | 
RRWVRYPVHLHSPIV [SEQ ID NO: 5] | Neg | 1 |  |  | 
KRIWFIPRSSWYER [SEQ ID NO: 33, KRIWFIPRSSWYER] |  |  |  | inhibitory activity | 31.4 ± 7.0%
FIPRSSWYERA [SEQ ID NO: 30, FIPRSSWYERA] |  |  |  |  | −0.3 ± 3.0%
WFIPRSSWYERA [SEQ ID NO: 29, WFIPRSSWYERA] |  |  |  |  | 2.7 ± 1.8%
RIWFIPRSSWYER [SEQ ID NO: 25, RIWFIPRSSWYER] |  |  |  |  | 6.2 ± 1.5%
KRIWFIPRSS [SEQ ID NO: 35, KRIWFIPRSS] |  |  |  |  | 6.0 ± 0.4%
IPRSSWYERA [SEQ ID NO: 31, IPRSSWYERA] |  |  |  |  | 3.4 ± 1.4%
RIWFIPRSSWYERA [SEQ ID NO: 24, RIWFIPRSSWYERA] |  |  |  |  | 9.4 ± 0.4%
FVWVRFHRLPRQIYT [SEQ ID NO: 10] | Neg | 1 |  |  | 
RHLSHFKWLRSHGLD [SEQ ID NO: 19] | 12.12% | 1 |  |  | 
GWITFHRRHHDRVLS [SEQ ID NO: 15] | 14.26% | 1 |  |  | 
PRSSWYERA [SEQ ID NO: 32, PRSSWYERA] |  |  |  |  | 3.8 ± 1.6%
IWFIPRSSWYE [SEQ ID NO: 27, IWFIPRSSWYE] |  |  |  |  | 1.4 ± 2.5%
